Test results as given in ChEMBL document CHEMBL1153550, “In vitro study of Candida tropicalis isolates exhibiting paradoxical growth in the presence of high concentrations of caspofungin” (2007).
≈ marks a conversion by molar mass, not a printed value. Calls of active or inactive are those of the source. The rule behind the calls is not given here.

What was measured:
Candida tropicalis [1] = assay: Antifungal activity against 10^5 CFU/ml Candida tropicalis isolate 3 in RPMI 1640 medium at 12.5 ug/ml treated for 48 hrs followed by incubation in drug free medium for 48 hrs by broth microdilution method; format: functional, organism-based
Candida tropicalis [2] = assay: Antifungal activity against 2 x 10^7 CFU/ml Candida tropicalis isolate 4 in antibiotic medium 3 after 24 hrs by broth microdilution method; format: functional; details: isolate 4, 24 h
Candida tropicalis [3] = assay: Antifungal activity against Candida tropicalis isolate 15 in RPMI 1640 medium assessed as paradoxical growth at 12.5 ug/ml after 24 hrs by broth microdilution method; format: functional, organism-based
Candida tropicalis [4] = assay: Antifungal activity against 10^5 CFU/ml Candida tropicalis clinical isolate in antibiotic medium 3 treated for 24 hrs followed by incubation in drug free medium for 48 hrs by broth microdilution method; format: functional, organism-based
Candida tropicalis [5] = assay: Antifungal activity against 2 x 10^7 CFU/ml Candida tropicalis isolate 8 in RPMI 1640 medium after 24 hrs by broth microdilution method; format: functional; details: isolate 8, 24 h
Candida tropicalis [6] = assay: Antifungal activity against 10^5 CFU/ml Candida tropicalis isolate 13 in RPMI 1640 medium at =< 0.09 ug/ml after 24 hrs followed by incubation in drug free medium for 48 hrs by broth microdilution method; format: functional, organism-based
Candida tropicalis [7] = assay: Antifungal activity against > 2 x 10^7 CFU/ml Candida tropicalis isolate 1 in antibiotic medium 3 assessed as partial growth after 24 hrs by broth microdilution method; format: functional, organism-based
Candida tropicalis [8] = assay: Antifungal activity against 10^5 CFU/ml Candida tropicalis clinical isolates in RPMI 1640 medium at 6.25 ug/ml after 48 hrs followed by incubation in drug free medium for 48 hrs by broth microdilution method; format: functional, organism-based
Candida tropicalis [9] = assay: Antifungal activity against 2 x 10^7 CFU/ml Candida tropicalis isolate 1 in antibiotic medium 3 after 24 hrs by broth microdilution method; format: functional; details: isolate 1, 24 h
Candida tropicalis [10] = assay: Antifungal activity against 10^5 CFU/ml Candida tropicalis ATCC 750 in RPMI 1640 medium at 0.4 to 12.5 ug/ml treated for 48 hrs followed by incubation in drug free medium for 48 hrs by broth microdilution method; format: functional, organism-based
Candida tropicalis [11] = assay: Antifungal activity against Candida tropicalis isolate 1 in antibiotic medium 3 assessed as paradoxical growth at 12.5 ug/ml after 24 hrs by broth microdilution method; format: functional, organism-based
Candida tropicalis [12] = assay: Antifungal activity against 10^5 CFU/ml Candida tropicalis isolate 1 in RPMI 1640 medium at 12.5 ug/ml treated for 24 hrs followed by incubation in drug free medium for 48 hrs by broth microdilution method; format: functional, organism-based
Candida tropicalis [13] = assay: Antifungal activity against > 2 x 10^7 CFU/ml Candida tropicalis isolate 10 in RPMI 1640 medium assessed as partial growth after 24 hrs by broth microdilution method; format: functional, organism-based
Candida tropicalis [14] = assay: Antifungal activity against > 2 x 10^7 CFU/ml Candida tropicalis isolate 13 in antibiotic medium 3 assessed as partial growth after 24 hrs by broth microdilution method; format: functional, organism-based
Candida tropicalis [15] = assay: Antifungal activity against > 2 x 10^7 CFU/ml Candida tropicalis isolate 3 in RPMI 1640 medium assessed as partial growth after 24 hrs by broth microdilution method; format: functional, organism-based
Candida tropicalis [16] = assay: Antifungal activity against 2 x 10^7 CFU/ml Candida tropicalis isolate 3 in RPMI 1640 medium after 24 hrs by broth microdilution method; format: functional; details: isolate 3, 24 h
Candida tropicalis [17] = assay: Antifungal activity against Candida tropicalis isolate 8 in RPMI 1640 medium assessed as paradoxical growth at 12.5 ug/ml after 48 hrs by broth microdilution method; format: functional, organism-based
Candida tropicalis [18] = assay: Antifungal activity against 2 x 10^7 CFU/ml Candida tropicalis isolate 11 in RPMI 1640 medium after 24 hrs by broth microdilution method; format: functional; details: isolate 11, 24 h
Candida tropicalis [19] = assay: Antifungal activity against 10^5 CFU/ml Candida tropicalis isolate 2 in RPMI 1640 medium at 12.5 ug/ml treated for 48 hrs followed by incubation in drug free medium for 48 hrs by broth microdilution method; format: functional, organism-based
Candida tropicalis [20] = assay: Antifungal activity against 10^5 CFU/ml Candida tropicalis isolate 13 in RPMI 1640 medium at 12.5 ug/ml treated for 24 hrs followed by incubation in drug free medium for 48 hrs by broth microdilution method; format: functional, organism-based
Candida tropicalis [21] = assay: Antifungal activity against > 2 x 10^7 CFU/ml Candida tropicalis isolate 6 in antibiotic medium 3 assessed as paradoxical growth after 24 hrs by broth microdilution method; format: functional, organism-based
Candida tropicalis [22] = assay: Antifungal activity against Candida tropicalis isolate 6 in RPMI 1640 medium assessed as paradoxical growth at 12.5 ug/ml after 24 hrs by broth microdilution method; format: functional, organism-based
Candida tropicalis [23] = assay: Antifungal activity against Candida tropicalis isolate 5 in RPMI 1640 medium assessed as paradoxical growth at 12.5 ug/ml after 48 hrs by broth microdilution method; format: functional, organism-based
Candida tropicalis [24] = assay: Antifungal activity against 10^5 CFU/ml Candida tropicalis isolate 5 in RPMI 1640 medium at 12.5 ug/ml treated for 24 hrs followed by incubation in drug free medium for 48 hrs by broth microdilution method; format: functional, organism-based
Candida tropicalis [25] = assay: Antifungal activity against 10^5 CFU/ml Candida tropicalis isolate 12 in RPMI 1640 medium at 12.5 ug/ml treated for 24 hrs followed by incubation in drug free medium for 48 hrs by broth microdilution method; format: functional, organism-based
Candida tropicalis [26] = assay: Antifungal activity against 10^5 CFU/ml Candida tropicalis isolate 4 in RPMI 1640 medium at 0.4 to 12.5 ug/ml treated for 48 hrs followed by incubation in drug free medium for 48 hrs by broth microdilution method; format: functional, organism-based

For CC[C@H](C)C[C@H](C)CCCCCCCCC(=O)N[C@H]1C[C@@H](O)[C@@H](NCCN)NC(=O)[C@@H]2[C@@H](O)CCN2C(=O)[C@H]([C@H](O)CCN)NC(=O)[C@H]([C@H](O)[C@@H](O)c2ccc(O)cc2)NC(=O)[C@@H]2C[C@@H](O)CN2C(=O)[C@H]([C@@H](C)O)NC1=O [CASPOFUNGIN], the Activity (Candida tropicalis [1]) was “inactive”, the MIC (Candida tropicalis [2]) was 0.024 µg/mL (≈ 0.022 µM) and the Activity (Candida tropicalis [3]) was “inactive”. For the same molecule, the Activity (Candida tropicalis [4]) was “Active”, the MIC (Candida tropicalis [5]) was 0.024 µg/mL (≈ 0.022 µM) and the Activity (Candida tropicalis [6]) was “Active”. For the same molecule, the Activity (Candida tropicalis [7]) was “inactive”, the Activity (Candida tropicalis [8]) was “inactive” and the MIC (Candida tropicalis [9]) was 0.024 µg/mL (≈ 0.022 µM). The Activity (Candida tropicalis [10]) was “inactive”, the Activity (Candida tropicalis [11]) was “inactive” and the Activity (Candida tropicalis [12]) was “inactive”. For the same molecule, the Activity (Candida tropicalis [13]) was “inactive”, the Activity (Candida tropicalis [14]) was “inactive” and the Activity (Candida tropicalis [15]) was “inactive”. For the same molecule, the MIC (Candida tropicalis [16]) was 0.024 µg/mL (≈ 0.022 µM), the Activity (Candida tropicalis [17]) was “inactive” and the MIC (Candida tropicalis [18]) was 0.024 µg/mL (≈ 0.022 µM). The Activity (Candida tropicalis [19]) was “inactive”, the Activity (Candida tropicalis [20]) was “inactive” and the Activity (Candida tropicalis [21]) was “inactive”. The Activity (Candida tropicalis [22]) was “inactive”, the Activity (Candida tropicalis [23]) was “inactive” and the Activity (Candida tropicalis [24]) was “inactive”. The Activity (Candida tropicalis [25]) was “inactive” and the Activity (Candida tropicalis [26]) was “inactive”.
